Experimental data: patent US20230090708A1, “METHODS AND COMPOSITIONS FOR THE TREATMENT OF HEMANGIOMA” (MASSEY VENTURES LIMITED, priority 2020, published 2023)
≈ marks a conversion by molar mass, not a printed value. Read-outs that look alike come from different tables or passages of the source.

Legend:
[1] = cited from earlier work; for Half life: in vivo; for Half life: short or long acting: in words
[2] = cited from earlier work; for Log P: Table 1
[3] = cited from earlier work
[4] = tested on: proliferating hemangioma cells; assay: Experiment 7: different ACEi and beta blockers on one primary cell line, MTT; format: cell-based, human; settings: for inhibition of proliferating hemangioma cells: 1 μM and 10 μM; for Results Summary: 72 hours, one cell line; for inhibition at 1 µM / inhibition at 10 µM: Homo sapiens, 72 h, read-out: Inhibition vs. Cells + Adjuvant at 72 Hours
Procedure: (§1) An in vitro cell culture model of infantile hemangioma was developed to assess the impact of renin-angiotensin system inhibitors on cellular proliferation. A primary cell line of proliferating infantile hemangioma cells, including haemangioma stem cells, was derived from a tissue biopsy obtained from patients during the proliferating phase of the disease. The primary cell lines are cultured in 25 cm^2 flasks using standard culture media and conditions. The cultured cells are used to seed 96-well plates with a seed cell concentration of 2500 or 5000 cells per well, with additional culture media (200 μL). All studies are performed in triplicate.
The plates are incubated overnight to allow cell adherence to the wells. The wells are photographed to confirm cell adherence and confluency. The appropriate drug(s) to be examined are subsequently added to the wells. […] The media is aspirated from each well and stored frozen for possible future analyses. Media is added to the wells and an MTT determination is undertaken according to standard protocols.
(§2) From the triplicate incubations of each drug concentration at each time, as well as for all controls, the mean±standard deviation is calculated. The net survival (optical density value) is calculated by subtracting the appropriate blank mean value from each cell culture. From the MTT data, the percentage of survival of cells in the presence of each concentration of drug after each time of culturing is determined.
Briefly, cells were seeded in 96-well plates at concentrations of 2500 cells/well in triplicate for each drug and drug combination. […] All plates were performed in triplicate. Beta blockers used in the study were (±)-propranolol, R-propranolol, S-propranolol, timolol, and betaxalol.

[5] = cited from earlier work; remark: listed apart in the source
proliferating IH = settings: cited from earlier work
[6] = tested on: proliferating infantile hemangioma cells derived from multiple patients (n=5); assay: Example 4: single agents and combinations on five patient-derived cell lines, MTT; format: cell-based, human; settings: for Individual Responders at 72 Hours with ≥30% Inhibition vs. Cells + Adjuvant: responders/cell lines; for Results Summary: 72 hours, n=5 cell lines; for Estimated Optimal Dosage Range in vitro / inhibition of all five patient-derived haemangioma cell lines: single agent
Procedure: An in vitro cell culture model of infantile hemangioma was developed to assess the impact of renin-angiotensin system inhibitors on cellular proliferation. A primary cell line of proliferating infantile hemangioma cells, including haemangioma stem cells, was derived from a tissue biopsy obtained from patients during the proliferating phase of the disease. The primary cell lines are cultured in 25 cm^2 flasks using standard culture media and conditions. The cultured cells are used to seed 96-well plates with a seed cell concentration of 2500 or 5000 cells per well, with additional culture media (200 μL). All studies are performed in triplicate. The plates are incubated overnight to allow cell adherence to the wells. The wells are photographed to confirm cell adherence and confluency. The appropriate drug(s) to be examined are subsequently added to the wells. After 24 hours, one set of plates (experimental and blank) is stopped. The media is aspirated from each well and stored frozen for possible future analyses. Media is added to the wells and an MTT determination is undertaken according to standard protocols. This is repeated at 48 and 72 hours. From the triplicate incubations of each drug concentration at each time, as well as for all controls, the mean±standard deviation is calculated. The net survival (optical density value) is calculated by subtracting the appropriate blank mean value from each cell culture. From the MTT data, the percentage of survival of cells in the presence of each concentration of drug after each time of culturing is determined. […] The experimental protocol was performed as per Example 1. Briefly, cells were seeded in 96-well plates at a concentration of 2500 cells/well in triplicate for each drug and drug combination. Drug(s) were added to each well 24 hours after seeding and re-dosed every 24 hours. Cell viability was assessed by MTT assay after 24, 48, and 72 hours. All plates were performed in triplicate. Drugs were assessed alone and in combination as described in Table 3.

[7] = tested on: proliferating hemangioma cell lines (n=9); assay: Example 6: single agents and combinations on nine primary cell lines, MTT, CompuSyn combination index; format: cell-based, human
Procedure: as §1
The plates are incubated overnight to allow cell adherence to the wells. The wells are photographed to confirm cell adherence and confluency. The appropriate drug(s) to be examined are subsequently added to the wells. After 24 hours, one set of plates (experimental and blank) is stopped. The media is aspirated from each well and stored frozen for possible future analyses. Media is added to the wells and an MTT determination is undertaken according to standard protocols. This is repeated at 48 and 72 hours.
as §2
A study was undertaken using combinations of ACE inhibitors, beta blockers and angiotensin II type 2 receptor blockers to inhibit proliferating hemangioma cells. […] Patient histories pertaining to each cell line is described in Table 5.
The experimental protocol was performed as per Example 1. Briefly, cells were seeded in 96-well plates at concentrations of 2500 cells/well in triplicate for each drug and drug combination. Drug(s) were added to each well 24 hours after seeding and re-dosed every 24 hours. Cell viability was assessed by MTT assay after 24, 48, and 72 hours. All plates were performed in triplicate. Drugs were assessed alone and in combination, as described in Table 6. Propranolol was used as a model beta blocker, cilazapril as a model ACE inhibitor, and SMM02 (L-159686) as a model AT2Ri. Synergy was measured using the CompuSyn open-source software protocol for quantifying synergism and antagonism that uses the median-effect equation and mass-action laws to generate a combination index (www.compusyn.com). Synergism, additive effects and antagonism are defined as a CI<1, CI=1, and CI>1, respectively.

SMILES: C[C@H](N[C@@H](CCc1ccccc1)C(=O)O)C(=O)N1CCC[C@H]1C(=O)O [enalaprilat]
- Half life [1]: 11 h (enalaprilat)

SMILES: C[C@H](N[C@@H](CCc1ccccc1)C(=O)O)C(=O)N1Cc2ccccc2C[C@H]1C(=O)O [Quinaprilat, quinaprilat]
- Half life [1]: 3 h (quinaprilat)

SMILES: O=C(O)CN1C(=O)[C@@H](N[C@@H](CCc2ccccc2)C(=O)O)CCc2ccccc21 [benazeprilat]
- Half life [1]: 10 to 11 h

SMILES: CCOC(=O)[C@H](CCc1ccccc1)N[C@@H](C)C(=O)N1Cc2ccccc2C[C@H]1C(=O)O [Quinapril]
- Log P [2]: 3.2
- log P [2]: 3.2
- pKa [3]: 3.7
- pKa ([3]; second value): 5.2
- inhibition of proliferating hemangioma cells [4]: good and similar level of inhibition
- Results Summary [4]: Responder
- inhibition at 1 µM [4]: 4.87%
- inhibition at 10 µM [4]: 62.3%
- Half life: short or long acting [1]: Short acting

SMILES: CC(C)NCC(O)COc1ccc(CCOCC2CC2)cc1 (stereo not drawn) [Betaxolol]
- inhibition of proliferating hemangioma cells [4]: no response
- Results Summary [4]: Non-
- inhibition at 1 µM [4]: 2.8%
- inhibition at 10 µM [4]: < 0%

SMILES: C[C@H](N[C@@H](CCc1ccccc1)C(=O)O)C(=O)N1[C@H](C(=O)O)C[C@@H]2CCC[C@@H]21 [Ramiprilat, ramiprilat]
- Half life [1]: 13 to 17 h

SMILES: C[C@H](N[C@@H](CCc1ccccc1)C(=O)O)C(=O)N1[C@H](C(=O)O)C[C@H]2CCCC[C@@H]21 [Trandolaprilat, trandolaprilat]
- Half life [1]: 10 h

SMILES: C[C@H](CS)C(=O)N1CCC[C@H]1C(=O)O [Captopril]
- Solubility [5]: 130 mg/mL (≈ 598 mM)
- patients with response scored dramatic (proliferating IH; n of eight patients): 3
- patients with response scored medium (proliferating IH; n of eight patients): 2
- patients with response scored slow (proliferating IH; n of eight patients): 3
- effect on proliferating IH (proliferating IH; oral 1.5 mg/kg daily, eight patients): positive effect in all patients
- rebound growth after treatment ceased (proliferating IH; treatment ceased after 14 months): no rebound growth

SMILES: CCOC(=O)[C@H](CCc1ccccc1)N[C@@H](C)C(=O)N1[C@H](C(=O)O)C[C@H]2CCCC[C@@H]21 [Trandolapril]
- Log P [2]: 3.5
- log P [2]: 3.5
- pKa [3]: 3.8
- pKa ([3]; second value): 5.2
- inhibition of proliferating hemangioma cells [4]: good and similar level of inhibition
- Results Summary [4]: Responder
- inhibition at 1 µM [4]: 0.63%
- inhibition at 10 µM [4]: 67.8%
- Half life [1]: 6 h
- Half life: short or long acting [1]: Long acting

SMILES: CCOC(=O)[C@H](CCc1ccccc1)N[C@@H](C)C(=O)N1CCC[C@H]1C(=O)O [Enalapril]
- Log P [2]: 0.07
- pKa [3]: 2.97
- pKa ([3]; second value): 5.35
- inhibition of proliferating hemangioma cells [4]: good and similar level of inhibition
- Results Summary [4]: Responder
- inhibition at 1 µM [4]: 1.55%
- inhibition at 10 µM [4]: 67.9%
- Half life: short or long acting [1]: Long acting

SMILES: COc1ccc2c(c1OCc1ccccc1)C[C@@H](C(=O)O)N(C(=O)C(c1ccccc1)c1ccccc1)C2 [EMA401, (S)-5-(benzyloxy)-2-(2,2-diphenylacetyl)-6-methoxy-1,2,3,4-tetrahydroisoquinoline-3-carboxylic acid]
- Individual Responders at 72 Hours with ≥30% Inhibition vs. Cells + Adjuvant ([6]; 1 μM): 1 μM - ¼
- Individual Responders at 72 Hours with ≥30% Inhibition vs. Cells + Adjuvant ([6]; 10 μM): 10 μM - 4/5
- Individual Responders at 72 Hours with ≥30% Inhibition vs. Cells + Adjuvant ([6]; 100 μM): 100 μM - 5/5
- Results Summary [6]: Responder
- Estimated Optimal Dosage Range in vitro [6]: 5 to 25 µM
- inhibition of all five patient-derived haemangioma cell lines [6]: significantly inhibited

SMILES: O=C(O)[C@@H]1CN(C(=O)N(c2ccccc2)c2ccccc2)CCN1C(=O)N(c1ccccc1)c1ccccc1 [SMM02, (S)-1,4-bis(N,N-diphenylcarbamoyl)piperazine-2-carboxylic acid]
- Individual Responders at 72 Hours with ≥30% Inhibition vs. Cells + Adjuvant ([6]; 1 μM): 1 μM - 0/4
- Individual Responders at 72 Hours with ≥30% Inhibition vs. Cells + Adjuvant ([6]; 10 μM): 10 μM - 5/5
- Individual Responders at 72 Hours with ≥30% Inhibition vs. Cells + Adjuvant ([6]; 100 μM): 100 μM - 5/5
- Results Summary [6]: Responder
- Estimated Optimal Dosage Range in vitro [6]: 1 to 10 µM
- inhibition of all five patient-derived haemangioma cell lines [6]: significantly inhibited
- dose-response across all cell lines ([7]; 1 to 10 μM, 72 hours, n=9): non-linear dose-response
- threshold concentration ([7]; single agent, consistent inhibition above it): 2.5 µM

SMILES: CCCCc1nc(Cl)c(CO)n1Cc1ccc(-c2ccccc2-c2nn[nH]n2)cc1 [Losartan]
- Individual Responders at 72 Hours with ≥30% Inhibition vs. Cells + Adjuvant ([6]; 1 μM): 1 μM - 0/5
- Individual Responders at 72 Hours with ≥30% Inhibition vs. Cells + Adjuvant ([6]; 10 μM): 10 μM - 0/5
- Results Summary [6]: Non-Responder
- inhibition of all five patient-derived haemangioma cell lines [6]: not
